In test [1] the test system is rotatory behavior induced by intrastriatal pirenzepine. The test is described as follows: antagonism of rotatory behavior induced by intrastriatal injection of pirenzepine in mice. Format: in vivo, mouse (female, Swiss, CD 1). The note with it: Mus musculus, ip; 50% reduction in number of rotations; i.p. 15 minutes before pirenzepine 1 μg into right striatum. How it is done:
The intrastriatal injection of PZ into mice induces rotatory behavior. The antagonism of this behavior by the products according to the invention was studied. The products according to the invention are injected intraperitoneally (i.p.) after solubilization in distilled water or suspension in a 5% solution of gum arabic. The control animals receive an injection of the pure solvent under the ssame conditions. The animals used are female mice (Swiss, CD 1, Charles River, France) with a body weight of between 25 and 30 grams. The pirenzepine is dissolved in a phosphate buffer and the pH of the solution is 6. The test products of their solvents are injected intraperitoneally in a volume of 0.4 ml per 20 g of body weight, 15 minutes before a direct injection of pirenzepine into the right striatum of the mouse at a dose of 1 μg in 1 μl of solvent, according to the method described by P. WORMS et al. in Eur. J. Pharmacol., 1986, 121, 395-401. The number of contralateral rotations (rotations in the opposite direction to the side injected) was counted for three 2-minute periods after injection of the pirenzepine: 2nd to 4th, 8th to 10th and 13th to 15th minutes. Each treatment consists of 3 to 4 doses with 10 animals per dose. The total number of rotations and the percentage antagonism with respect to the control group are calculated for each treatment. The 50% effective dose (ED50), i.e. the dose which causes a 50% reduction in the number of rotations induced by pirenzepine, is determined graphically for each product.

In test [2] the target is T1, M1-type muscarinic cholinergic receptor (Rattus norvegicus, UniProt P08482).
T1 sequence (P08482 1-460): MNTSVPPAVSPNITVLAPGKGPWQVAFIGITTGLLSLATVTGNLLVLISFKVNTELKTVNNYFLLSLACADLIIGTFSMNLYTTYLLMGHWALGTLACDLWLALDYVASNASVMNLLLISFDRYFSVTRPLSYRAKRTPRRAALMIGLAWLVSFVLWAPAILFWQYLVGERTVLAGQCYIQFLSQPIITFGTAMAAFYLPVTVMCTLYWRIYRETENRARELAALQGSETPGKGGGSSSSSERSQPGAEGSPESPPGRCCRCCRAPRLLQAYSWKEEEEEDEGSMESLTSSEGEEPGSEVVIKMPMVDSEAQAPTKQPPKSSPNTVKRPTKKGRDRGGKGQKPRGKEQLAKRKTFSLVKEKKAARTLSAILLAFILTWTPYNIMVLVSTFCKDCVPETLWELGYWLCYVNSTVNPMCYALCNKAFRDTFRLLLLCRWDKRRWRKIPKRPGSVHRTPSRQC
Put plainly: affinity for the M1-type muscarinic cholinergic receptor ([3H]-pirenzepine displacement, rat hippocampus homogenate). Type of test: binding. The conditions noted are these: for IC50: [3H]-PZ 1 nM, rat hippocampus homogenate, 2 h at 4° C., pH 7.40; for r = (M2/M1): ratio of the IC50 values for M2 (3H-NMS) and M1 (3H-pirenzepine), selectivity.
Protocol: The interaction of the molecules with the M1 -type muscarinic receptors was studied by in vitro measurement, on a rat hippocampus homogenate, of the displacement of tritiated pirenzepine ([^3 H]-PZ) from its specific binding sites. Aliquots (10 μl) of a 5% (w/v) rat hippocampus homogenate in an Na2 HPO4 buffer (50 mM, pH 7.40) are incubated for 2 h at 4° C. in the presence of [^3 H]-PZ (76 Ci/nmol; final concentration 1 nM) and increasing concentrations of the test product. The final volume is 2 ml. The reaction is stopped by centrifugation for 10 min at 50 000×g. After decantation and washing of the residues, the bound radio-activity is counted by liquid scintillation. The non-specific binding is determined in the presence of 10 μM atropine sulfate. The 50% inhibitory concentration (IC50) is determined graphically.

The target of test [3] is T2, M2-type muscarinic cholinergic receptor (Cavia porcellus, UniProt H0VRN8).
T2 construct: on a smooth guinea-pig ileum muscle homogenate; from tissue; host or cells: guinea-pig ileum smooth muscle homogenate
T2 sequence (H0VRN8 1-466): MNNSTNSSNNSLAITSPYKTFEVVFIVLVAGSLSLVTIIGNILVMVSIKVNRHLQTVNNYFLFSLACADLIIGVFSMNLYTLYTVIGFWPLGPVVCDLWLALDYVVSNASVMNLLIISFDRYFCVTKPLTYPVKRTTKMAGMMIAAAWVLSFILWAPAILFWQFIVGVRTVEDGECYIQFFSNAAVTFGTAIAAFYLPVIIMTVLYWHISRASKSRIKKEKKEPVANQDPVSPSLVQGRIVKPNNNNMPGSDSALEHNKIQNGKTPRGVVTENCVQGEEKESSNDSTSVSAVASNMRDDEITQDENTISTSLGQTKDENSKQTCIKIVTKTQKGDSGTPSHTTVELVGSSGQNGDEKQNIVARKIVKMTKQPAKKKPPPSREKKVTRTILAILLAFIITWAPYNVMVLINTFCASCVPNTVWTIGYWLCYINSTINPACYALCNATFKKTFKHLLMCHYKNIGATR
The test is described as follows: affinity for the M2-type muscarinic cholinergic receptor ([3H]-N-methylscopolamine displacement, smooth guinea-pig ileum muscle homogenate). Format: binding. The conditions noted are these: [3H]-NMS 0.3 nM, 20 min at 30° C., pH 7.5. How it is done: The M1 -type receptors are concentrated in certain regions of the brain, such as the hippocampus, the cerebral cortex and the striatum, and also in the sympathetic ganglia. These binding sites can be selectively labeled with [^3 H]-pirenzepine ([^3 H]-PZ). The M2 -type rreceptors predominate in the heart and the ileum and can be labeled with [^3 H]-N-methylscopolamine ([^3 H]-NMS). The selectivity of the compounds of the invention with respect to the M1 and M2 sites was determined by studying their in vitro interaction with [^3 H]-PZ and [^3 H]-NMS firmly bound with a high affinity to rat hippocampus membranes and smooth guinea-pig ileum muscle, respectively.
The interaction with the M2 -type muscarinic receptors was studied by in vitro measurement, on a smooth guinea-pig ileum muscle homogenate, of the displacement of tritiated N-methylscopolamine ([^3 H]-NMS) from its specific binding sites. Aliquots (50 μl) of a 0.625% (w/v) smooth guinea-pig ileum muscle homogenate in HEPES buffer (20 mM) containing NaCl (100 mM) and MgCl2 (10 mM) (final pH: 7.5) are incubated for 20 min at 30° C. in the presence of [^3 H]-NMS ([…]; final concentration 0.3 nM) and increasing concentrations of the test products. The final volume is 1 ml. The reaction is topped by centrifugation for 5 min at 15 000×g. The non-specific binding is determined in the presence of 10 μM atropine sulfate. (Ref.: R. Hammer, C. P. Berrie, N. I. M. Birdsall, A. S. V. Burgen and E. C. Hulme, Nature, 283, 90-92, 1980; E. C. Hulme, N. I. M. Birdsall, A. S. V. Burgen and P. Mettha, Mol. Pharmacol., 14, 737-750, 1978.)
Table 5 indicates the affinities of the products of the invention for the M1 and M2 receptors. The results are expressed as 50 percent inhibitory concentrations (IC50), i.e. the concentration (in μM) which induces the displacement of 50% of the tritiated ligand bound to the membrane receptors. The IC50 for ^3 H-pirenzepine displacement represents the affinity for the M1 receptor; The IC50 for ^3 H-NMS displacement represents the affinity for the M2 receptor.

As usually defined, the ED50 is the dose at which the effect has come halfway, by size or by number of responders. Read a high ED50 as weaker potency. Take `c1ccc(-c2ccc3nc(CN4CCOCC4)cn3n2)cc1` [SR 95842 A]: the ED50 in test [1] was 3 mg/kg.
As usually defined, the IC50 is the concentration needed to halve the response being measured. `CCN(CC)Cc1cn2nc(-c3ccccc3)ccc2n1` [SR 96069 A]: in test [2], the IC50 was determined as 1.5 µM and the “r = (M2/M1)” value is listed as 66. The same compound had an IC50 in test [3] of 100 µM.
In the case of `c1ccc(-c2ccc3ncc(CN4CCOCC4)n3n2)cc1` [SR 96068 A], it took a dose of 10 mg/kg to reach the 50% effect level in test [1] (ED50).
On to `Cc1cc(-c2ccccc2)nn2c(CN3CCOCC3)cnc12.Cl.Cl` [SR 95950 A, 8-Methyl-3-morpholinomethyl-6-phenylimidazo[1,2-b]pyridazine dihydrochloride], for which, in test [2], the half-maximal inhibitory concentration (IC50) is 1.4 µM and the “r = (M2/M1)” value is on record as over 71. Moreover, in test [3], the IC50 is over 100 µM. The same compound had an ED50 in test [1] of 5 mg/kg.
As to `Clc1ccc(-c2ccc3nc(CN4CCOCC4)cn3n2)cc1` [SR 96089 A], in test [2], the IC50 amounted to 3 µM and the “r = (M2/M1)” value is over 33. Also, the half-inhibitory concentration (IC50) in test [3] was over 100 µM.
As for `CCN(CC)Cc1cn2nc(-c3cccc(OC)c3)cc(C)c2n1` [SR 96095 A], in test [2], the IC50 is 0.4 µM and the “r = (M2/M1)” value came to 162. This compound came in with an IC50 in test [3] of 65 µM. Moreover, in test [1], the 50% effect level (ED50) was put at a dose of 5 mg/kg.
The compound `CN(C)Cc1cnc2ccc(-c3ccccc3)nn12` [SR 96070 A] returned an ED50 in test [1] of 3 mg/kg.
Still for that read-out and setting: the same measure for `Clc1ccc(-c2ccc3ncc(CN4CCOCC4)n3n2)cc1` [SR 96109 A]: 8 mg/kg.
For the compound `COc1cccc(-c2cc(C)c3ncc(CN4CCOCC4)n3n2)c1` [SR 96088 A], the IC50 in test [2] amounted to 8 µM.
As to `c1ccc(-c2cc(-c3ccccc3)c3ncc(CN4CCOCC4)n3n2)cc1` [SR 96111 A], the ED50 in test [1] was found to be 7 mg/kg.
For the compound `CCN(CC)Cc1cn2nc(-c3ccccc3)cc(C)c2n1.Cl.Cl` [SR 96052 A, 2-Diethylaminomethyl-8-methyl-6-phenylimidazo[1,2-b]pyridazine dihydrochloride], the half-maximal inhibitory concentration (IC50) in test [2] was determined as 0.5 µM; in test [3], 65 µM. For the same compound, the “r = (M2/M1)” value in test [2] stood at 130. The compound further had an ED50 in test [1] of 8 mg/kg.

(Values after patent US4910199A, “Imidazo[1,2-]pyridazines for cortical cholinergic deficiencies” (Sanofi, priority 1987, dated 1990).)
